In patent EP4772161A1, “SKIN COSMETIC COMPOSITION CONTAINING BOTRYOCOCCENE AS ACTIVE INGREDIENT” (Phycochemy Corporation, priority 2023, dated 2025):

Key:
Type in all cases: cell-based, human
NHEK cells [1] = experiment: Protection against cytotoxicity induced by H2O2 (Neutral Red uptake); details: botryococcene 25-200 µM for 24 hours, then 300 µM H2O2 for 1 hour
Procedure: (§1) Normal human epidermal keratinocytes (NHEKs) were cultured in HuMedia-KG2 (KG2) medium containing 10% fetal bovine serum, 1% antibiotic and 1% human epidermal keratinocyte growth supplement, in a 37°C, 5% CO2 incubator.
NHEK cells were seeded on a 96-well plate at a density of 2.5 × 10^4 cells/well in KG2 medium, and incubated for 24 hours. The supernatant was aspirated, the medium was exchanged with KB2 medium containing 0, 25, 50, 100 and 200 µM botryococcene, and incubation was carried out for 24 hours. After culturing, the cells were washed for 1 hour with HBSS containing PBS and 300 µM H2O2, and the cells were then incubated for 24 hours in KB2 medium. After incubation, the cells were washed with PBS, the medium was exchanged with KB2 medium containing 0.003% Neutral Red, and culturing was carried out for 2 hours. After culturing, the cells were washed with PBS. The Neutral Red in the cells was extracted with 1 M HCl in 30% MeOH. The absorbance at 550 nm was measured with a microplate reader.

MMP-1 = MMP-1 production by NHDF cells treated with supernatant (K-CM) of UVB-irradiated NHEK cells (ELISA, per unit protein)
Procedure: as §1
(§2) Normal human skin fibroblasts (NHDFs) were cultured in DMEM with addition of 10% fetal bovine serum, 1% antibiotic and 1% human epidermal keratinocyte growth supplement, in a 37°C, 5% CO2 incubator.
(§3) NHEK cells were seeded on a 96-well plate at a density of 2.5 × 10^4 cells/well in KG2 medium, and incubated for 24 hours. The supernatant was aspirated, the medium was exchanged with KB2 medium containing 0, 25, 50, 100 and 200 µM botryococcene, and culturing was continued for 24 hours, after which the cells were washed with PBS and the medium was replaced with HBSS. The cells were then irradiated with UVB (280 to 320 nm, 20 mJ/cm^2) and cultured for 24 hours in fresh KB2 medium. After culturing, the supernatant (K-CM) was collected. NHDF cells were seeded on a 96-well plate at a density of 2.0 × 10^4 cells/well in DMEM medium, and incubated for 24 hours. […] The cells were then dissolved in 50 µL of PBS containing 0.5% Triton^R X-100, and the protein level was quantified with a BCA Protein Assay Kit (product of Thermo Fisher Scientific), calculating the type I collagen and MMP-1 production per unit protein.

PGE2 = PGE2 production in culture supernatant of NHEK cells, with or without UVB irradiation (ELISA, per unit protein)
Procedure: as §1
(§4) NHEK cells were seeded on a 96-well plate at a density of 2.5 × 10^4 cells/well in KG2 medium, and incubated for 24 hours. The supernatant was aspirated, the medium was exchanged with KB2 medium containing 0, 25, 50, 100 and 200 µM botryococcene, and culturing was continued for 24 hours, after which the cells were washed with PBS and the medium was exchanged with HBSS. The cells were then irradiated with UVB (280 to 320 nm, 20 mJ/cm^2) and cultured for 24 hours in fresh KB2 medium. The IL-1α and PGE2 expression levels in the culture supernatants were measured using an ELISA measuring kit. The cells were then dissolved in 50 µL of PBS containing 0.5% Triton^R X-100, the protein level was quantified, and the IL-1α and PGE2 production levels per unit protein were calculated.

NHEK cells [2] = experiment: Cytotoxicity with botryococcene treatment (Neutral Red uptake); details: 24 hours
Procedure: as §1
NHEK cells were seeded on a 96-well plate at a density of 2.5 × 10^4 cells/well in KG2 medium, and incubated for 24 hours. The supernatant was aspirated, the medium was exchanged with HuMedia-KB2 (KB2) medium containing 0, 12.5, 25, 50, 100, 200 and 400 µM botryococcene, and the mixture was incubated for 24 hours. After culturing, the cells were washed with PBS, the medium was exchanged with KB2 medium containing 0.003% Neutral Red, and culturing was carried out for 2 hours. The Neutral Red in the cells was extracted with 1 M HCl in 30% MeOH. The absorbance at 550 nm was measured with a microplate reader.

IL-1α = IL-1α production in culture supernatant of NHEK cells, with or without UVB irradiation (ELISA, per unit protein)
Procedure: as §1, §4

intracellular ROS = experiment: Intracellular reactive oxygen species removal (DCFH-DA fluorescence per unit protein); details: NHEK cells, botryococcene 25-200 µM for 24 hours
Procedure: as §1
NHEK cells were seeded on a 96-well plate at a density of 2.5 × 10^4 cells/well in KG2 medium, and incubated for 24 hours. The supernatant was removed, the medium was exchanged with KB2 medium containing 0, 25, 50, 100 and 200 µM botryococcene, and incubation was carried out for 24 hours. After culturing, the cells were washed with PBS, the medium was exchanged with HBSS buffer containing 200 µM H2O2, and culturing was continued for 1 hour. The supernatant was removed and culturing was carried out for 30 minutes in HBSS buffer containing 20 µM DCFH-DA. The fluorescence intensity was measured with a microplate reader ([…]). The cells were then dissolved in 50 µL of PBS containing 0.5% Triton^R X-100, the protein level was quantified, and the fluorescence intensity per unit protein was normalized.

type I collagen = experiment: Type I collagen production by NHDF cells treated with supernatant (K-CM) of UVB-irradiated NHEK cells (ELISA, per unit protein)
Procedure: as §1, §2, §3

NHEK cells [3] = experiment: Fluorescent bead (FluoSpheres) phagocytosis induced by UVB irradiation; details: UVB 20 mJ/cm^2
Procedure: as §1
NHEK cells were seeded on a 96-well plate at a density of 2.5 × 10^4 cells/well in KG2 medium, and incubated for 24 hours. The supernatant was aspirated, the medium was exchanged with KB2 medium containing 0, 25, 50, 100 and 200 µM botryococcene, and culturing was continued for 24 hours, after which the cells were washed with PBS and the medium was replaced with HBSS. The cells were then irradiated with UVB (280 to 320 nm, 20 mJ/cm^2) and cultured for 24 hours in fresh KB2 medium. After replacing the medium with of KB2 medium containing FluoSpheres™ and allowing the cells to stand for 4 hours, they were dissolved with 50 µL of PBS containing 0.5% Triton^R X-100 and the fluorescence of the cell lysate was measured with a microplate reader. The fluorescence of the cell lysate was detected with a fluorescence reader at an excitation/luminous wavelength of 535 nm/590 nm. The cells were then dissolved in 50 µL of PBS containing 0.5% Triton^R X-100, the protein level was quantified, and the fluorescence intensity per unit protein was normalized.

[4] = NHDF cells with K-CM of UVB-irradiated NHEK cells pretreated with botryococcene 200 µM
[5] = NHDF cells with K-CM of UVB-irradiated NHEK cells pretreated with botryococcene 25 to 100 µM
[6] = botryococcene 200 µM, UVB 20 mJ/cm^2
[7] = botryococcene 25 to 100 µM, UVB 20 mJ/cm^2

SMILES: C=C[C@@](C)(/C=C/[C@H](C)CC[C@H](C)C(=C)CC[C@H](C)C(=C)C)CC[C@H](C)C(=C)CC[C@H](C)C(=C)C [botryococcene]
- reduction in cell viability by H2O2 treatment (NHEK cells [1]): restored by addition of botryococcene, in a concentration-dependent manner
- inhibiting effect on acceleration of MMP-1 production (MMP-1; [4]): less prominent than with 50 µM or 100 µM
- acceleration of MMP-1 production (MMP-1; [5]): inhibited the reduction in collagen production and acceleration of MMP-1 production in a concentration-dependent manner up to 100 µM
- Induction of PGE2 production (PGE2; [6]): not inhibited
- PGE2 production induced by UVB irradiation (PGE2; [7]): inhibited all of the IL-1α and PGE2 production induced by UVB irradiation in a concentration-dependent manner up to 100 µM
- amount of PGE2 produced (PGE2; non-UVB-irradiated conditions, botryococcene up to 50 µM): reduced by botryococcene in a concentration-dependent manner
- cell viability (NHEK cells [2]; botryococcene 0 to 200 µM): No change in cell viability was observed
- cell viability (NHEK cells [2]; botryococcene 400 µM): a notable reduction was observed
- Induction of IL-1α production (IL-1α; [6]): not inhibited
- IL-1α production induced by UVB irradiation (IL-1α; [7]): inhibited all of the IL-1α and PGE2 production induced by UVB irradiation in a concentration-dependent manner up to 100 µM
- amount of IL-1α produced (IL-1α; non-UVB-irradiated conditions, botryococcene up to 100 µM): reduced by botryococcene in a concentration-dependent manner up to 100 µM for IL-1α
- intracellular ROS concentration (intracellular ROS; then 200 µM H2O2 treatment for 1 hour): decrease in a concentration-dependent manner
- intracellular ROS concentration (intracellular ROS; without H2O2 treatment): decrease in a concentration-dependent manner
- inhibiting effect on reduction in collagen production (type I collagen; [4]): less prominent than with 50 µM or 100 µM
- reduction in collagen production (type I collagen; [5]): inhibited the reduction in collagen production and acceleration of MMP-1 production in a concentration-dependent manner up to 100 µM
- effect of inhibiting fluorescent bead phagocytosis (NHEK cells [3]; botryococcene 200 µM): less prominent than with 50 µM or 100 µM
- fluorescent bead phagocytosis by UVB irradiation (NHEK cells [3]; botryococcene 25 to 100 µM): inhibited fluorescent bead phagocytosis by UVB irradiation in a concentration-dependent manner up to 100 µM
